Results on 4 compounds are retold here after patent US3940426A, “Process for producing biphenyltetracarboxylic dianhydrides” (UBE Industries, Ltd., priority 1972, dated 1976).

Data set [1] is described as follows: Solubility of biphenyltetracarboxylic acid isomers in water or an aqueous solvent. In kind it is physicochemical. The settings on record: order among the biphenyltetracarboxylic acid isomers; FIG. 2 in water at varying temperatures. As for the experimental part: The solubility was measured by maintaining each of a mixture of 9.35 g of 2,3,3',4'-biphenyltetracarboxylic acid and 10 ml. of water and a mixture of 7.53 g of 3,4,3',4'-biphenyltetracarboxylic acid and 20 ml. of water at a predetermined temperature to dissolve each of the isomers in water, separating the insoluble matter by filtration, drying the filtrate, and weighing it, to thereby obtained the amount of each isomer dissolved at the specified temperature.

Data set [2] in a line: Solubility of biphenyltetracarboxylic dianhydride isomers in aliphatic acid anhydride or ketone. The class given is physicochemical. The settings on record: compared with the 3,4,3',4'-isomer; FIG. 1 in acetic anhydride at varying temperatures. As for the experimental part:
Referring to FIG. 1, the ordinate represents the solubility (g/acetic anhydride: 10 ml.) and the abscissa the temperature in °C. The measurement of the solubility was performed by maintaining separate mixtures of 2.5 g of the 2,3,3',4'-isomer and 5 ml. of acetic anhydride and a mixture of 1 g of the 3,4,3',4'-isomer and 20 ml. of acetic anhydride at a predetermined temperature to dissolve each of the isomers in the acetic anhydride, separating the insoluble matter by filtration, drying the filtrate and weighing it, to thereby obtain the amount of the isomer dissolved in […] at the specified temperature.

On to `O=C(O)c1cccc(-c2cccc(C(=O)O)c2C(=O)O)c1C(=O)O` [2,3,2',3'-isomer, 2,3,2',3'-biphenyltetracarboxylic acid], for which, in data set [1], the “solubility in water or in an aqueous solvent” value is “largest solubility in water or in an aqueous solvent”.

As for `O=C(O)c1ccc(-c2cccc(C(=O)O)c2C(=O)O)cc1C(=O)O` [2,3,3',4'-biphenyltetracarboxylic acid], the “solubility in water or in an aqueous solvent” value in data set [1] is listed as “followed by the 2,3,3',4'-isomer”.

As to `O=C1OC(=O)c2cc(-c3cccc4c3C(=O)OC4=O)ccc21` [2,3,3',4'-biphenyltetracarboxylic dianhydride], the “solubility in an aliphatic acid anhydride or ketone” value in data set [2] is given as “more soluble in an aliphatic acid anhydride or ketone than the 3,4,3',4'-isomer”.

Take `O=C(O)c1ccc(-c2ccc(C(=O)O)c(C(=O)O)c2)cc1C(=O)O` [3,4,3',4'-biphenyltetracarboxylic acid]: the “solubility in water or in an aqueous solvent” value in data set [1] is “the 3,4,3',4'-isomer in order of decreasing solubility”.
